Results published in publication PMC4995014, “Identification of ABC Transporter Interaction of a Novel Cyanoquinoline Radiotracer and Implications for Tumour Imaging by Positron Emission Tomography” (PLoS ONE, 2016).

What was measured:
[1] = biological target: T1, wildtype EGFR (H358 cells) (Homo sapiens, UniProt P00533); test: Inhibition of EGFR autophosphorylation (p-EGFR Y1068, western blot) in H358 cells; assay type: cell-based; settings: 3 h incubation, EGF stimulated
T1 construct: host or cells: H358
T1 sequence (P00533 25-1210): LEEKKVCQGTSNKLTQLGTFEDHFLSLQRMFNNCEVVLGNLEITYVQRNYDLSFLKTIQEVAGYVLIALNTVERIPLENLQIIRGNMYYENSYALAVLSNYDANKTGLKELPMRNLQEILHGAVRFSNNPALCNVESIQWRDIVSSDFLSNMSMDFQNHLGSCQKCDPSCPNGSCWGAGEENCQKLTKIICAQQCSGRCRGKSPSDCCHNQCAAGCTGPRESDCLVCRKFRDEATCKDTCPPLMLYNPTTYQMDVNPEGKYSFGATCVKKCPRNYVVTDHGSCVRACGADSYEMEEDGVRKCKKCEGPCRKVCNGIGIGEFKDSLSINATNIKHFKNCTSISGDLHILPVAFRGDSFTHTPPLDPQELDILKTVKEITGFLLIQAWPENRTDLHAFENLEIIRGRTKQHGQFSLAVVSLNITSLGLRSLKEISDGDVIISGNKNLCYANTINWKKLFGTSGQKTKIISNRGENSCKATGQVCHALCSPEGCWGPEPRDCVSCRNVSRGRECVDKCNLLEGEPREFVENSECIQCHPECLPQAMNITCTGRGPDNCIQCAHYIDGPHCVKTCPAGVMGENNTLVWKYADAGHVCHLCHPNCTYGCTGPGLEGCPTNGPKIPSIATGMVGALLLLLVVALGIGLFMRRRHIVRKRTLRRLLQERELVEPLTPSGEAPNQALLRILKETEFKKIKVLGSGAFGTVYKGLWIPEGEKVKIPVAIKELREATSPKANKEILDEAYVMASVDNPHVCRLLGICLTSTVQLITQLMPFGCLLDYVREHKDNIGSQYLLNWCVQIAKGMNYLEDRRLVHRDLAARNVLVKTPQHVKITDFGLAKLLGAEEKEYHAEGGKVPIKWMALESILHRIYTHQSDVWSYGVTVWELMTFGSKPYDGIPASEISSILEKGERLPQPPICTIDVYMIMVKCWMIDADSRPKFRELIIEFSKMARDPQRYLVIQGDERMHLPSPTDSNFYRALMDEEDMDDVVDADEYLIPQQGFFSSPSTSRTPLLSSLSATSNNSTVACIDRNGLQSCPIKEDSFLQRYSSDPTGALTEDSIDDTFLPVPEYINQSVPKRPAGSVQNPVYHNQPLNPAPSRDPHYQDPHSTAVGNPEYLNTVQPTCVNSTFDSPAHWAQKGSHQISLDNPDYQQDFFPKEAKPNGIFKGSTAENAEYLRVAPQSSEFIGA
Procedure: Affinity of the cyanoquinolines for EGFR was established by measuring their inhibition of EGFR autophosphorylation via western blot. Cells were seeded in 6 well plates and following 24 h of growth, were subject to overnight serum starvation. The cells were then treated with increasing concentrations of cyanoquinolines prepared in serum free growth media from a DMSO stock (final DMSO concentration < 1%) for 3 h at 37°C, and stimulated for receptor autophosphorylation by addition of 100 ng/mL of EGF during the last 15 minutes of drug incubation. After 3 h the cells were placed on ice, media removed and then the cells were washed two times with ice cold phosphate buffered saline (PBS). Lysates were analysed by western blot to measure changes to p-EGFR Y1068.
Cell lysates were prepared by addition of radioimmunoprecipitation assay (RIPA) buffer (50mM Tris-HCl pH 7.2, 150mM NaCl, 1% NP40, 1% sodium deoxycholate, 0.1% sodium dodecyl sulfate) supplemented with 1 x protease and phosphatase inhibitor cocktail (1mM 4-(2-Aminoethyl)benzenesulfonylfluoride hydrochloride, 800 nM aprotinin, 50 μM bestatin, 15 μM E-64, 5μM EDTA, 20 μM leupeptin, 10 μM pepstatin A; Thermo scientific, Waltham, Massachusetts, USA). […] Cellular protein levels were assessed using a bicinchoninic acid (BCA) protein assay kit according to the manufacturer’s instructions (Thermo scientific). […]

EGFR = system: EGFR; parameters: method as in PMID 20797871, PMID 24307532; settings: cell-free; read-out: IC50 for inhibition of cell-free EGFR phosphorylation; cited from earlier work
Caco2 transwell assay = assay type: in vitro ADME, human; settings: human, Caco-2, with verapamil 10 mg/mL, pre-treatment for 1 h, pre-treatment with 10 mg/mL verapamil for 1 h; read-out: efflux ratio in the presence of verapamil
Procedure: The caco2 transwell assay was performed to assess permeability. Cells were seeded at a density of 60,000 cells per well in 24 well transwell plates (Millipore, Billerica, Massachutsetts, USA), and maintained in DMEM supplemented with […] glucose (20% FBS, 1% penicillin/streptomycin, 1% glutamine) for 21 days at 37°C in 5% CO2. After 21 days the cells differentiate into enterocytes and express all three MDR proteins, ABCB1 and ABCG2 at the apical side and ABCC1 on the basal side. On day 21, cells were washed three times with Hank's Balanced Salt Solution (HBSS) (Fisher scientific, Loughborough, UK) and the trans-epithelial electric resistance (TERR) was measured using an Epithelial Voltohmmeter (EVOM) (World Precision Instruments, Sarasota, USA); only transwells with TERR of 400 Ω/cm^2 or above were used for the experiment. Cells were treated either at the apical (n = 3) or basal (n = 3) side of the transwell by addition of 10 μM of cyanoquinoline compound or 50 μM vinblastine prepared in a volume of 400 μL HBSS (compound added to apical well) or 800 μL of HBSS (added to basal well). When transport inhibitors FTC (10 μM) or zosuquidar (0.3 μM) were used, they were added to both the apical and basal wells 1 h prior to drug treatment. After 1 h pre-treatment the medium was removed and cells were treated with the compounds prepared in HBSS containing FTC or Zosuquidar.
Plates were incubated in shaker incubator at 37°C and 60 rpm for 120 min. After incubation, 200 μL aliquots from the apical and the basal wells were collected and analysed using high performance liquid chromatography (HPLC). Samples were run on a Millipore Waters HPLC system which included a 717 plus autosampler and 2487 dual wavelength absorbance detector system. The stationary phase comprised of a Phenomenex Luna C18 reverse phase column (150 X 4.6 mm; 5 μm particle size). The mobile phase comprised water (0.1% TFA) and acetonitrile (0.1% TFA) (80:20 v/v) at a flow rate of 1 mL/min for all compounds except vinblastine. For vinblastine, the stationary phase comprised a Supelcosil LC-ABZ reverse phase column (5 × 4.6 mm; 5 μm particle size). The mobile phase comprised water (0.1% formic acid) and methanol (90:10 to 10:90 v/v gradient over 20 min). Peak areas corresponding to the compounds of interest were recorded. Using standard curves the areas under the curve were converted into concentrations of compound. The permeability coefficient (Papp) was calculated using the following equation [30]: Papp = (dQ/dt)/A C0, where A is the surface area of the transwell membrane in cm^2 (= 0.33 cm^2), C0 is the drug concentration in the donor chamber at time t = 0 and dQ/dt is the rate of transfer of the compound to the receiver chamber, determined from the slope of the graph concentration (dQ) versus time (dt). Papp values corresponding to absorption and secretion were assessed and used to calculate efflux ratio. Efflux ratio =(Papp B−A)/(Papp A−B) Where Papp A-B = Papp absorption and Papp B-A = Papp secretion.
The integrity of the caco2 cell membrane was assessed for each well following the experiment by addition of a 100 μM solution of […] (Sigma) in HBSS to the apical side of the plate. The plates were placed in the shaker incubator for 1 h at 37°C and 60 rpm. Samples from the basal wells were transferred into a 96 well plate and the levels of […] were assessed by measuring with an excitation of 450 nm and an emission of 540 nm using the PerkinElmer Wallac 1420 counter.

CCOc1cc2ncc(C#N)c(Nc3ccc(F)c(Cl)c3)c2cc1NC(=O)/C=C/CNCc1cn(CCF)nn1 [FED6, (2E)-N-{4-[(3-chloro-4-fluorophenyl)amino]-3-cyano-7-ethoxyquinolin-6-yl}-4-({[1-(2-fluoroethyl)-1H-1,2,3-triazol-4-yl]methyl}amino)-but-2-enamide]
IC50 [1]: 600 nM
IC50 (EGFR): 1.8 nM
efflux ratio at 120 min, 10 μM (Caco2 transwell assay): 1.1
